For 34 compounds, AC1.4 results are on record in patent US20250296916A1, “BICYCLIC PIPERAZINONES AND THERAPEUTIC USES THEREOF” (Cytokinetics, Inc., priority 2022, published 2025).

The assay concerns rabbit skeletal myofibrils (approximately 90% fast fibers). Description: Activation of fast skeletal myofibrils (PUMA coupled-enzyme ATPase assay). The following applies: concentration at which the compound increased the enzymatic activity by 40%; calcium at pCa25; PM12 buffer pH 6.8. The format is biochemical. The protocol:
Preparation of fast skeletal myofibrils: Rabbit skeletal myofibrils were prepared based upon the method of Herrmann et al. (Biochem. 32 (28): 7255-7263 (1993). Myofibrils were prepared from rabbit psoas muscle purchased from Pel-Freez Biologicals (Arkansas) within 2 days of ordering, stored on ice. Minced muscle was homogenized in 10 volumes of ice-cold “standard” buffer (50 mM Tris, pH 7.4, 0.1 M KOAc, 5 mM KCl, 2 mM dithiothreitol (DTT), 0.2 mM phenylmethylsulfonyl fluoride (PMSF), 10 μM leupeptin, 5 μM pepstatin, and 0.5 mM sodium azide) containing 5 mM ethylenediaminetetraacetic acid (EDTA) and 0.5% Triton X-100 using an Omni-Macro homogenizer. Myofibrils were recovered by low speed centrifugation (3000 rpm for 10 minutes) and washed 2 times in the Triton X-100 containing buffer to ensure removal of cellular membrane. Following the Triton washes, myofibrils were washed 3 times in “standard” buffer containing 2 mM magnesium acetate. A final wash in assay buffer (12 mM piperazine-1,4-bis(2-ethanesulfonic acid) (PIPES), pH 6.8, 60 mM KCl, 1 mM DTT) was performed and brought to 10% sucrose for flash freezing in liquid nitrogen and storage at −80° C.
Activation of Fast Skeletal Myofibrils: Fast fiber activators were identified by measuring the enzymatic activity of muscle myofibril preparations using the proprietary PUMA (trademark) (see, e.g., U.S. Pat. Nos. 6,410,254, 6,743,599, 7,202,051, and 7,378,254) assay system. Myofibril preparations consisted of rabbit skeletal muscle (approximately 90% fast fibers) that had been mechanically homogenized and washed with a detergent (Triton X-100) to remove cellular membranes. This preparation retained all of the sarcomeric components in a native conformation and the enzymatic activity was still regulated by calcium. Compounds were tested using a myofibril suspension and a level of calcium sufficient to increase enzymatic activity of the myofibrils to 25% of their maximal rate (termed pCa25). Enzymatic activity was tracked via a pyruvate kinase and lactate dehydrogenase-coupled enzyme system. This assay regenerates myosin-produced ADP into ATP by oxidizing NADH, producing an absorbance change at 340 nm. The buffering system was 12 mM PIPES, 2 mM MgCl2, 1 mM DTT at pH 6.8 (PM12 buffer). […] In Table 3, “Example Compound” refers to the compound labeled with the same number in Table 2.
On to `CC[C@H](C)[C@H]1C(=O)Nc2ccccc2N1C(=O)N1CC(F)C1` [Compound 112, (S)-3-((S)-sec-butyl)-4-(3-fluoroazetidine-1-carbonyl)-3,4-dihydroquinoxalin-2(1H)-one], for which the AC1.4 amounted to 1.01 µM.

On to `CCC[C@H]1C(=O)Nc2ccccc2N1C(=O)Nc1cccnc1` [Compound 47, (S)-3-oxo-2-propyl-N-(pyridin-3-yl)-3,4-dihydroquinoxaline-1(2H)-carboxamide], for which the AC1.4 worked out at 1.51 µM.

Take `CC[C@H](C)[C@H]1C(=O)Nc2ccccc2N1C(=O)N1CCC[C@H](CO)C1` [Compound 116, (S)-3-((S)-sec-butyl)-4-((S)-3-(hydroxymethyl)piperidine-1-carbonyl)-3,4-dihydroquinoxalin-2(1H)-one]: the AC1.4 turned out to be 0.83 µM.

Consider `CCNC(=O)N1c2ccccc2NC(=O)[C@@H]1[C@@H](C)CC` [Compound 103, (S)-2-((S)-sec-butyl)-N-ethyl-3-oxo-3,4-dihydroquinoxaline-1(2H)-carboxamide], for which the AC1.4 amounted to 0.78 µM.

With `CCC[C@H]1C(=O)Nc2ccccc2N1C(=O)c1ccc(C)nc1` [Compound 3, (S)-4-(6-methylnicotinoyl)-3-propyl-3,4-dihydroquinoxalin-2(1H)-one], the AC1.4 was 0.77 µM.

`CCC[C@H]1C(=O)Nc2ccccc2N1C(=O)c1ccc[nH]1` [Compound 9, (S)-3-propyl-4-(1H-pyrrole-2-carbonyl)-3,4-dihydroquinoxalin-2(1H)-one]: the AC1.4 is 0.74 µM.

On to `CC[C@H](C)[C@H]1C(=O)Nc2cnccc2N1C(=O)c1ccccc1` [Compound 97, (S)-1-benzoyl-2-((S)-sec-butyl)-1,4-dihydropyrido[3,4-b]pyrazin-3(2H)-one], for which the AC1.4 was determined as 0.28 µM.

`CC[C@H](C)[C@H]1C(=O)Nc2ccccc2N1C(=O)N1CC[C@H](O)C1` [Compound 106, (S)-3-((S)-sec-butyl)-4-((S)-3-hydroxypyrrolidine-1-carbonyl)-3,4-dihydroquinoxalin-2(1H)-one]: the AC1.4 was 1.77 µM.

In the case of `CCC[C@H]1C(=O)Nc2ccccc2N1C(=O)c1cccc(F)c1` [Compound 17, (S)-4-(3-fluorobenzoyl)-3-propyl-3,4-dihydroquinoxalin-2(1H)-one], the AC1.4 is 0.17 µM.

Consider `CCC[C@H]1C(=O)Nc2ccccc2N1C(=O)c1ccc(-n2cccc2)nc1` [Compound 23, (S)-4-(6-(1H-pyrrol-1-yl)nicotinoyl)-3-propyl-3,4-dihydroquinoxalin-2(1H)-one], for which the AC1.4 is 1.33 µM.

Turning to `CC(C)C[C@H]1C(=O)Nc2ccccc2N1C(=O)c1cnn(C)c1` [Compound 68, (S)-3-isobutyl-4-(1-methyl-1H-pyrazole-4-carbonyl)-3,4-dihydroquinoxalin-2(1H)-one], the AC1.4 came out at 0.16 µM.

For the compound `CCC[C@H]1C(=O)Nc2ccccc2N1C(=O)N[C@@H](C)c1ccccc1` [Compound 50, (S)-3-oxo-N-((S)-1-phenylethyl)-2-propyl-3,4-dihydroquinoxaline-1(2H)-carboxamide], the AC1.4 turned out to be 2.36 µM.

As to `CCC[C@H]1C(=O)Nc2ccccc2N1C(=O)Nc1ccc(F)cc1` [Compound 58, (S)-N-(4-fluorophenyl)-3-oxo-2-propyl-3,4-dihydroquinoxaline-1(2H)-carboxamide], the AC1.4 worked out at 0.26 µM.

Turning to `CCC[C@H]1C(=O)Nc2ccccc2N1C(=O)c1ccc(N(C)C2CC2)nc1` [Compound 37, (S)-4-(6-(cyclopropyl(methyl)amino)nicotinoyl)-3-propyl-3,4-dihydroquinoxalin-2(1H)-one], the AC1.4 came out at 0.58 µM.

Take `CCC[C@H]1C(=O)Nc2ccccc2N1C(=O)Nc1ccc(OC)cc1` [Compound 55, (S)-N-(4-methoxyphenyl)-3-oxo-2-propyl-3,4-dihydroquinoxaline-1(2H)-carboxamide]: the AC1.4 stood at 1.88 µM.

Turning to `CCC[C@H]1C(=O)Nc2ccccc2N1C(=O)Nc1ccc(C)cc1` [Compound 62, (S)-3-oxo-2-propyl-N-(p-tolyl)-3,4-dihydroquinoxaline-1(2H)-carboxamide], the AC1.4 worked out at 1.39 µM.

As to `CCC[C@H]1C(=O)Nc2ccccc2N1C(=O)c1cncc(Cl)c1` [Compound 20, (S)-4-(5-chloronicotinoyl)-3-propyl-3,4-dihydroquinoxalin-2(1H)-one], the AC1.4 was 1.52 µM.

Turning to `CC[C@H](C)[C@H]1C(=O)Nc2ccccc2N1C(=O)N[C@H]1C[C@@H](O)C1` [Compound 133, (S)-2-((S)-sec-butyl)-N-((1s,3R)-3-hydroxycyclobutyl)-3-oxo-3,4-dihydroquinoxaline-1(2H)-carboxamide], the AC1.4 came out at 1.68 µM.

For `CC[C@H](C)[C@H]1C(=O)Nc2ccccc2N1C(=O)NCCO` [Compound 105, (S)-2-((S)-sec-butyl)-N-(2-hydroxyethyl)-3-oxo-3,4-dihydroquinoxaline-1(2H)-carboxamide], the AC1.4 stood at 2.23 µM.

As for `CCC[C@H]1C(=O)Nc2cccc(C3CC3)c2N1C(=O)c1ccc(C)nc1` [Compound 7, (S)-5-Cyclopropyl-4-(6-methylnicotinoyl)-3-propyl-3,4-dihydroquinoxalin-2(1H)-one], the AC1.4 is 0.96 µM.

Turning to `CCC[C@H]1C(=O)Nc2ccccc2N1C(=O)c1cnn(CCO)c1` [Compound 67, (S)-4-(1-(2-hydroxyethyl)-1H-pyrazole-4-carbonyl)-3-propyl-3,4-dihydroquinoxalin-2(1H)-one], the AC1.4 was determined as 1.31 µM.

As to `CCC[C@H]1C(=O)Nc2ccccc2N1C(=O)Nc1cccc(C)c1` [Compound 61, (S)-3-oxo-2-propyl-N-(m-tolyl)-3,4-dihydroquinoxaline-1(2H)-carboxamide], the AC1.4 amounted to 0.43 µM.

Turning to `CC[C@H](C)[C@H]1C(=O)Nc2cccnc2N1C(=O)c1ccc(=O)n(C)c1` [Compound 92, (S)-3-((S)-sec-Butyl)-4-(1-methyl-6-oxo-1,6-dihydropyridine-3-carbonyl)-3,4-dihydropyrido[2,3-b]pyrazin-2(1H)-one], the AC1.4 is 1.03 µM.

Take `CCC[C@H]1C(=O)Nc2ccccc2N1C(=O)Nc1ccc(C)nc1` [Compound 8, (S)-N-(6-methylpyridin-3-yl)-3-oxo-2-propyl-3,4-dihydroquinoxaline-1(2H)-carboxamide]: the AC1.4 stood at 2.73 µM.

With `CCC[C@H]1C(=O)Nc2ccccc2N1C(=O)c1cn[nH]c1` [Compound 71, (S)-3-propyl-4-(1H-pyrazole-4-carbonyl)-3,4-dihydroquinoxalin-2(1H)-one], the AC1.4 stood at 0.54 µM.

As for `CC[C@H](C)[C@H]1C(=O)Nc2ccccc2N1C(N)=O` [Compound 99, (S)-2-((S)-sec-butyl)-3-oxo-3,4-dihydroquinoxaline-1(2H)-carboxamide], the AC1.4 was found to be 0.87 µM.

`CCC[C@H]1C(=O)Nc2ccccc2N1C(=O)NC1CCCCC1` [Compound 46, (S)-N-cyclohexyl-3-oxo-2-propyl-3,4-dihydroquinoxaline-1(2H)-carboxamide]: the AC1.4 turned out to be 0.47 µM.

With `CC[C@H](C)[C@H]1C(=O)Nc2ccccc2N1C(=O)OC` [Compound 125, methyl (S)-2-((S)-sec-butyl)-3-oxo-3,4-dihydroquinoxaline-1(2H)-carboxylate], the AC1.4 was determined as 1.25 µM.

For `CCC[C@H]1C(=O)Nc2ccccc2N1C(=O)c1cncc(F)c1` [Compound 18, (S)-4-(5-fluoronicotinoyl)-3-propyl-3,4-dihydroquinoxalin-2(1H)-one], the AC1.4 was determined as 2.97 µM.

Turning to `CCC[C@H]1C(=O)Nc2ccccc2N1C(=O)c1cccnc1` [Compound 12, (S)-4-nicotinoyl-3-propyl-3,4-dihydroquinoxalin-2(1H)-one], the AC1.4 is 1.55 µM.

Regarding `CCC[C@H]1C(=O)Nc2ccc(Cl)cc2N1C(=O)c1ccc(Cl)nc1` [Compound 2, (S)-6-chloro-4-(6-chloronicotinoyl)-3-propyl-3,4-dihydroquinoxalin-2(1H)-one], the AC1.4 was determined as 0.71 µM.

Consider `CC(C)[C@H]1C(=O)Nc2ccccc2N1C(=O)c1cnc2[nH]ncc2c1` [Compound 83, (S)-3-isopropyl-4-(1H-pyrazolo[3,4-b]pyridine-5-carbonyl)-3,4-dihydroquinoxalin-2(1H)-one], for which the AC1.4 worked out at 0.06 µM.

On to `CC[C@H](C)[C@H]1C(=O)Nc2ccccc2N1C(=O)NC` [Compound 102, (S)-2-((S)-sec-butyl)-N-methyl-3-oxo-3,4-dihydroquinoxaline-1(2H)-carboxamide], for which the AC1.4 worked out at 0.94 µM.

As to `CC[C@H](C)[C@H]1C(=O)Nc2ccccc2N1C(=O)c1cnn(CCO)c1` [Compound 78, (S)-3-((S)-sec-butyl)-4-(1-(2-hydroxyethyl)-1H-pyrazole-4-carbonyl)-3,4-dihydroquinoxalin-2(1H)-one], the AC1.4 was 0.16 µM.
